Experimental data from patent US6399629B1, “Efflux pump inhibitors” (priority 1998, dated 2002).

System: Pseudomonas aeruginosa PAM1001
Test: checkerboard assay (broth microdilution): levofloxacin MIC in presence of efflux pump inhibitor
Type: cell-based
Outline: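 Reduction of levofloxacin MIC by an efflux pump inhibitor measured against Pseudomonas aeruginosa PAM1001. Each microdilution well held a unique combination of levofloxacin and inhibitor (max 40 μg/mL) in MHB, inoculum 5×10^5 CFU/mL. Readout after 20 h, 35° C: OD650 plus visual inspection.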

NCC(=O)N[C@H]1CN[C@H](c2nc3ccccc3n2CCc2ccccc2)C1 [Compound M75, (2S,4R)-4-(2-Aminoacetamido)-2-(1-(2-phenyl)ethyl-2-benzimidazolyl)pyrrolidine]
Levofloxacin MIC Against P. aerugiuosa PAM1001 in Presence of Efflux Pump Inhibitor (EPI), Minimum Inhibitory Concentration (EPI Conc. 0 μg/mL): 4 µg/mL | Levofloxacin MIC Against P. aerugiuosa PAM1001 in Presence of Efflux Pump Inhibitor (EPI), Minimum Inhibitory Concentration (EPI Conc. 0.625 μg/mL): 4 µg/mL | Levofloxacin MIC Against P. aerugiuosa PAM1001 in Presence of Efflux Pump Inhibitor (EPI), Minimum Inhibitory Concentration (EPI Conc. 1.25 μg/mL): 4 µg/mL | Levofloxacin MIC Against P. aerugiuosa PAM1001 in Presence of Efflux Pump Inhibitor (EPI), Minimum Inhibitory Concentration (EPI Conc. 2.5 μg/mL): 4 µg/mL | Levofloxacin MIC Against P. aerugiuosa PAM1001 in Presence of Efflux Pump Inhibitor (EPI), Minimum Inhibitory Concentration (EPI Conc. 5 μg/ mL): 4 µg/mL | Levofloxacin MIC Against P. aerugiuosa PAM1001 in Presence of Efflux Pump Inhibitor (EPI), Minimum Inhibitory Concentration (EPI Conc. 10 μg/mL): 4 µg/mL | Levofloxacin MIC Against P. aerugiuosa PAM1001 in Presence of Efflux Pump Inhibitor (EPI), Minimum Inhibitory Concentration (EPI Conc. 20 μg/mL): 1 µg/mL | Levofloxacin MIC Against P. aerugiuosa PAM1001 in Presence of Efflux Pump Inhibitor (EPI), Minimum Inhibitory Concentration (EPI Conc. 40 μg/mL): 0.03 µg/mL

NCC(=O)N[C@H]1CN[C@H](C(=O)N[C@H](CCc2ccccc2)c2nc3ccccc3o2)C1 [Compound M77, (2S,4R)-4-(2-Aminoacetamido)-N-[(1R)-1-(2-benzoxazolyl)-3-pheylpropyl]-2-pyrrolidinexarboxamide]
Levofloxacin MIC Against P. aerugiuosa PAM1001 in Presence of Efflux Pump Inhibitor (EPI), Minimum Inhibitory Concentration (EPI Conc. 0 μg/mL): 4 µg/mL | Levofloxacin MIC Against P. aerugiuosa PAM1001 in Presence of Efflux Pump Inhibitor (EPI), Minimum Inhibitory Concentration (EPI Conc. 0.625 μg/mL): 4 µg/mL | Levofloxacin MIC Against P. aerugiuosa PAM1001 in Presence of Efflux Pump Inhibitor (EPI), Minimum Inhibitory Concentration (EPI Conc. 1.25 μg/mL): 4 µg/mL | Levofloxacin MIC Against P. aerugiuosa PAM1001 in Presence of Efflux Pump Inhibitor (EPI), Minimum Inhibitory Concentration (EPI Conc. 2.5 μg/mL): 4 µg/mL | Levofloxacin MIC Against P. aerugiuosa PAM1001 in Presence of Efflux Pump Inhibitor (EPI), Minimum Inhibitory Concentration (EPI Conc. 5 μg/ mL): 4 µg/mL | Levofloxacin MIC Against P. aerugiuosa PAM1001 in Presence of Efflux Pump Inhibitor (EPI), Minimum Inhibitory Concentration (EPI Conc. 10 μg/mL): 4 µg/mL | Levofloxacin MIC Against P. aerugiuosa PAM1001 in Presence of Efflux Pump Inhibitor (EPI), Minimum Inhibitory Concentration (EPI Conc. 20 μg/mL): 2 µg/mL | Levofloxacin MIC Against P. aerugiuosa PAM1001 in Presence of Efflux Pump Inhibitor (EPI), Minimum Inhibitory Concentration (EPI Conc. 40 μg/mL): 0.125 µg/mL

NCC(=O)N[C@H]1CN[C@H](C(=O)N[C@@H](CCc2ccccc2)c2nc3ccccc3[nH]2)C1 [Compound M78]
Levofloxacin MIC Against P. aerugiuosa PAM1001 in Presence of Efflux Pump Inhibitor (EPI), Minimum Inhibitory Concentration (EPI Conc. 0 μg/mL): 4 µg/mL | Levofloxacin MIC Against P. aerugiuosa PAM1001 in Presence of Efflux Pump Inhibitor (EPI), Minimum Inhibitory Concentration (EPI Conc. 0.625 μg/mL): 4 µg/mL | Levofloxacin MIC Against P. aerugiuosa PAM1001 in Presence of Efflux Pump Inhibitor (EPI), Minimum Inhibitory Concentration (EPI Conc. 1.25 μg/mL): 4 µg/mL | Levofloxacin MIC Against P. aerugiuosa PAM1001 in Presence of Efflux Pump Inhibitor (EPI), Minimum Inhibitory Concentration (EPI Conc. 2.5 μg/mL): 4 µg/mL | Levofloxacin MIC Against P. aerugiuosa PAM1001 in Presence of Efflux Pump Inhibitor (EPI), Minimum Inhibitory Concentration (EPI Conc. 5 μg/ mL): 4 µg/mL | Levofloxacin MIC Against P. aerugiuosa PAM1001 in Presence of Efflux Pump Inhibitor (EPI), Minimum Inhibitory Concentration (EPI Conc. 10 μg/mL): 2 µg/mL | Levofloxacin MIC Against P. aerugiuosa PAM1001 in Presence of Efflux Pump Inhibitor (EPI), Minimum Inhibitory Concentration (EPI Conc. 20 μg/mL): 1 µg/mL | Levofloxacin MIC Against P. aerugiuosa PAM1001 in Presence of Efflux Pump Inhibitor (EPI), Minimum Inhibitory Concentration (EPI Conc. 40 μg/mL): 0.125 µg/mL

NCC(=O)N[C@H]1CN[C@H](C(=O)NCc2nc3cc(Cc4ccccc4)ccc3[nH]2)C1 [Compound M79, (2S,4R)-4-(2-Aminoacetamido)-N-[(5-benzyl-2-benzimidazolyl)methyl]-2-pyrrolidinexarboxamide]
Levofloxacin MIC Against P. aerugiuosa PAM1001 in Presence of Efflux Pump Inhibitor (EPI), Minimum Inhibitory Concentration (EPI Conc. 0 μg/mL): 4 µg/mL | Levofloxacin MIC Against P. aerugiuosa PAM1001 in Presence of Efflux Pump Inhibitor (EPI), Minimum Inhibitory Concentration (EPI Conc. 0.625 μg/mL): 4 µg/mL | Levofloxacin MIC Against P. aerugiuosa PAM1001 in Presence of Efflux Pump Inhibitor (EPI), Minimum Inhibitory Concentration (EPI Conc. 1.25 μg/mL): 4 µg/mL | Levofloxacin MIC Against P. aerugiuosa PAM1001 in Presence of Efflux Pump Inhibitor (EPI), Minimum Inhibitory Concentration (EPI Conc. 2.5 μg/mL): 4 µg/mL | Levofloxacin MIC Against P. aerugiuosa PAM1001 in Presence of Efflux Pump Inhibitor (EPI), Minimum Inhibitory Concentration (EPI Conc. 5 μg/ mL): 4 µg/mL | Levofloxacin MIC Against P. aerugiuosa PAM1001 in Presence of Efflux Pump Inhibitor (EPI), Minimum Inhibitory Concentration (EPI Conc. 10 μg/mL): 2 µg/mL | Levofloxacin MIC Against P. aerugiuosa PAM1001 in Presence of Efflux Pump Inhibitor (EPI), Minimum Inhibitory Concentration (EPI Conc. 20 μg/mL): 1 µg/mL | Levofloxacin MIC Against P. aerugiuosa PAM1001 in Presence of Efflux Pump Inhibitor (EPI), Minimum Inhibitory Concentration (EPI Conc. 40 μg/mL): 0.125 µg/mL
